ChEMBL document CHEMBL1201862, “PubChem BioAssay data set” (2004)
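96-well plates; 48 h exposure; 5 concentrations. Endpoints by linear interpolation between flanking doses. Not reached: highest tested concentration assigned. Here, GI50 denotes the concentration required for 50% inhibition of growth.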 Active and inactive are the calls of the source. Rule as the data show it: active = GI50 up to about 1.1 µM and inactive = higher.

Legend:
Assay in all cases: DTP human tumour cell line panel, 48 h
HCT-15 = system: HCT-15
HCT-116 = system: HCT-116
SF-295 = system: SF-295
SNB-19 = system: SNB-19
SF-539 = system: SF-539
K562 = system: K562
NCI-H522 = system: NCI-H522
IGROV-1 = system: IGROV-1
SN12C = system: SN12C
PC-3 = system: PC-3
HOP-92 = system: HOP-92
UACC-62 = system: UACC-62
T47D = system: T47D
ACHN = system: ACHN
CCRF-CEM = system: CCRF-CEM
MCF7 = system: MCF7
A498 = system: A498
Malme-3M = system: Malme-3M
UO-31 = system: UO-31
UACC-257 = system: UACC-257

Measured: GI50

COc1cc2ccc1OCc1cccc(n1)COc1ccc(cc1OC)/C=N\c1ccc(cc1)-c1ccc(cc1)/N=C\2
> 100 µM: HCT-15
inactive: HCT-116 > 100 µM | SF-295 > 100 µM | SNB-19 > 100 µM | SF-539 > 100 µM | K562 > 100 µM | NCI-H522 > 100 µM | IGROV-1 > 100 µM | SN12C > 100 µM | PC-3 > 100 µM | HOP-92 > 100 µM | UACC-62 > 100 µM | T47D > 100 µM | ACHN > 100 µM | CCRF-CEM > 100 µM | MCF7 > 100 µM | A498 > 100 µM | Malme-3M > 100 µM | UO-31 > 100 µM | UACC-257 > 100 µM

Cc1cccc2c1CC1(C2)Cc2c(C)cccc2C1=O (stereo unspecified)
29 µM: HCT-15
inactive: HCT-116 16.5 µM | SF-295 27.9 µM | SNB-19 49.3 µM | SF-539 25.9 µM | K562 26.5 µM | NCI-H522 17.8 µM | IGROV-1 30.4 µM | SN12C 23.2 µM | PC-3 31.7 µM | HOP-92 16.6 µM | T47D 44.8 µM | ACHN 24.9 µM | CCRF-CEM 21.3 µM | MCF7 27.2 µM | A498 32.1 µM | Malme-3M 22.7 µM | UO-31 23.1 µM | UACC-257 23 µM

COC(=O)c1cc2c(c3c1CC(Cc1ccccc1)C3=O)CCC2 (stereo unspecified)
inactive: HCT-116 > 100 µM | SF-295 > 100 µM | SNB-19 > 100 µM | SF-539 > 100 µM | K562 38.1 µM | NCI-H522 68.4 µM | IGROV-1 73.3 µM | SN12C 78.2 µM | PC-3 > 100 µM | HOP-92 25.1 µM | UACC-62 32.7 µM | T47D 25.5 µM | ACHN 84.3 µM | CCRF-CEM 36.5 µM | MCF7 69.7 µM | A498 > 100 µM | Malme-3M 54.1 µM | UACC-257 > 100 µM
35 µM: HCT-15

COc1ccc(/N=N/C(=O)NC(CC(C)C)C(=O)NCC(=O)O)cc1 (stereo unspecified)
inactive: HCT-116 12.5 µM | SF-295 5.53 µM | SNB-19 > 92.5 µM | SF-539 4.18 µM | NCI-H522 22.5 µM | IGROV-1 6.27 µM | SN12C > 46.8 µM | PC-3 4.17 µM | HOP-92 > 100 µM | UACC-62 1.61 µM | T47D 3.03 µM | ACHN 1.54 µM | CCRF-CEM 9.31 µM | MCF7 13.2 µM | A498 > 100 µM | Malme-3M 19.7 µM | UACC-257 32.8 µM
1.46 µM: HCT-15
active: K562 0.451 µM | UO-31 1.04 µM

COc1cc(C(=O)Oc2c(C#N)sc3c2c(=O)n(-c2ccccc2)c(=S)n3-c2ccccc2)cc(OC)c1OC
inactive: HCT-116 16.3 µM | SF-295 4.14 µM | SNB-19 11.6 µM | SF-539 4.71 µM | K562 23.5 µM | IGROV-1 19.1 µM | SN12C 13.8 µM | PC-3 17.1 µM | HOP-92 14.6 µM | UACC-62 24.1 µM | T47D 25.5 µM | ACHN 8.87 µM | CCRF-CEM 4.72 µM | MCF7 22.9 µM | A498 4.1 µM | Malme-3M 9.14 µM | UACC-257 35.2 µM
18.9 µM: HCT-15
active: NCI-H522 0.361 µM

Cc1nc2ccccc2c(=O)n1NC(=O)c1ccc([N+](=O)[O-])cc1
inactive: HCT-116 > 100 µM | SF-295 > 100 µM | SNB-19 > 100 µM | SF-539 > 100 µM | K562 > 100 µM | NCI-H522 > 100 µM | IGROV-1 > 100 µM | SN12C > 100 µM | PC-3 > 100 µM | HOP-92 > 100 µM | UACC-62 > 100 µM | T47D > 100 µM | ACHN > 100 µM | CCRF-CEM > 100 µM | MCF7 > 100 µM | A498 56.4 µM | Malme-3M > 100 µM | UO-31 > 100 µM | UACC-257 > 100 µM

CN(C)c1ccc(/C=C/c2nc3ccccc3s2)cc1
> 100 µM: HCT-15
inactive: HCT-116 > 100 µM | SF-295 > 100 µM | SNB-19 > 100 µM | SF-539 > 100 µM | K562 > 100 µM | NCI-H522 > 100 µM | IGROV-1 > 100 µM | SN12C > 100 µM | PC-3 > 100 µM | HOP-92 > 100 µM | T47D > 100 µM | ACHN > 100 µM | CCRF-CEM > 100 µM | MCF7 > 100 µM | A498 > 100 µM | Malme-3M > 100 µM | UO-31 8.53 µM | UACC-257 > 100 µM

O=C(CN1CCOCC1)CC(O)(C(F)(F)F)C(F)(F)F
55.5 µM: HCT-15
inactive: HCT-116 44.9 µM | SF-295 67 µM | SNB-19 65.9 µM | SF-539 > 100 µM | K562 55.1 µM | NCI-H522 42 µM | IGROV-1 71.8 µM | PC-3 32.1 µM | HOP-92 29.6 µM | UACC-62 44.6 µM | T47D 42.4 µM | ACHN 92.5 µM | CCRF-CEM 56.4 µM | MCF7 > 100 µM | A498 > 100 µM | Malme-3M > 100 µM | UO-31 51.3 µM | UACC-257 > 100 µM

CC(C)(C)C1=C(Br)C(F)(C(C)(C)C)OP1(=O)c1ccccc1 (stereo unspecified)
inactive: HCT-116 16.7 µM | SF-295 21.6 µM | SNB-19 16.4 µM | SF-539 19.1 µM | K562 10 µM | NCI-H522 15.7 µM | IGROV-1 16 µM | SN12C 16 µM | PC-3 18 µM | HOP-92 18.7 µM | UACC-62 15.3 µM | T47D 15.9 µM | ACHN 16.5 µM | MCF7 15.8 µM | A498 24.8 µM | Malme-3M 17.9 µM | UO-31 45.7 µM | UACC-257 16.7 µM
19.5 µM: HCT-15

O=C(O)CCC(=O)Nc1ccc2ccccc2c1
inactive: HCT-116 > 100 µM | SF-295 > 100 µM | SNB-19 > 100 µM | K562 > 100 µM | NCI-H522 > 100 µM | IGROV-1 > 100 µM | SN12C > 100 µM | PC-3 > 100 µM | HOP-92 > 100 µM | UACC-62 > 100 µM | T47D > 100 µM | ACHN > 100 µM | CCRF-CEM > 100 µM | MCF7 > 100 µM | A498 > 100 µM | Malme-3M > 100 µM | UO-31 > 100 µM | UACC-257 > 100 µM
> 100 µM: HCT-15

Cc1c2c(OCC3CCCCO3)nn(C)c(=O)c2c(C)n1-c1ccccc1 (stereo unspecified)
inactive: HCT-116 17 µM | SF-295 16.5 µM | SNB-19 21.7 µM | SF-539 20 µM | K562 38.8 µM | NCI-H522 17 µM | IGROV-1 18.4 µM | SN12C 19.4 µM | PC-3 19.7 µM | HOP-92 18 µM | UACC-62 16.4 µM | T47D 22.1 µM | ACHN 16.5 µM | MCF7 14.9 µM | A498 14.9 µM | Malme-3M 18.7 µM | UO-31 16.6 µM | UACC-257 18.6 µM
17.1 µM: HCT-15
